{
  "source": "paper PMC6942458",
  "about": "(ACS chemical biology, 2019)",
  "key": {"breast cancers": {"test_system": "breast cancers", "conditions": "xenograft model and genetic model of breast cancers in mice; cited from earlier work"}, "SIRT3": {"molecular_target": "T1, SIRT3 (Homo sapiens, UniProt Q9NTG7)", "T1 sequence (Q9NTG7 1-399)": "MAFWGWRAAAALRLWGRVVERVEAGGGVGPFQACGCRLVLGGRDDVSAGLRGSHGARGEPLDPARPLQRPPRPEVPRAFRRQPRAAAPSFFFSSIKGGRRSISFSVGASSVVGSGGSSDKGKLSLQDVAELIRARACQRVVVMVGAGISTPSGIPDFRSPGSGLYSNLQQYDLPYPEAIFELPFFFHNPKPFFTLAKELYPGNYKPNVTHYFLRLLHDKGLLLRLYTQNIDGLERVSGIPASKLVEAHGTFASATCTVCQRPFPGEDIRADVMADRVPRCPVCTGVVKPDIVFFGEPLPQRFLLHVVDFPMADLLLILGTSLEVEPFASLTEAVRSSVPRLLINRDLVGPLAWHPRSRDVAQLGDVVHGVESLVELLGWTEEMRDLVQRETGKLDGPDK", "experiment": "SIRT3 deacetylase inhibition assay", "assay_type": "biochemical"}, "MCF7 cells [1]": {"test_system": "MCF7 cells", "experiment": "MCF7 cell permeability/availability assay", "assay_type": "in vitro ADME", "conditions": "for level of inhibitor detected in cells: 6 hours"}, "[2]": {"test_system": "various cancer cell lines", "conditions": "breast, pancreatic, colon, lung and many more; cited from earlier work"}, "[3]": {"conditions": "50 mM DMSO stock diluted to 5 mg/ml in PBS"}, "MCF7 cells [4]": {"test_system": "MCF7 cells", "experiment": "Soft agar colony formation assay", "assay_type": "cell-based", "conditions": "MCF7, 12 μM, 10 days"}},
  "data": [
    {"smiles": "CCCCCCCCCCCCCC(=S)NCCCCC(NC(=O)OCc1ccccc1)C(=O)Nc1ccccc1", "note": "(centres unmarked) [TM]", "values": [
      {"measurement": "tumor growth", "setting": "breast cancers", "value": "inhibited tumor growth"},
      {"measurement": "SIRT3 inhibition at 83 μM", "setting": "SIRT3", "value": "did not inhibit"},
      {"measurement": "level of inhibitor detected in cells", "setting": "MCF7 cells [1]; MCF7, 25 μM", "value": "about 0.29 μg/million cells"},
      {"measurement": "level of inhibitor detected in cells", "setting": "MCF7 cells [1]; MCF7, 50 μM", "value": "~0.30", "unit": "μg/million cells"},
      {"measurement": "compound detected in treated cells", "setting": "MCF7 cells [1]; MCF7 cells treated 6 hours, LC-MS", "value": "approximately 0.30 μg/million cells"},
      {"measurement": "cytotoxicity in cancer cell lines", "setting": "[2]", "value": "cytotoxic"},
      {"measurement": "solubility in PBS (precipitation)", "setting": "[3]", "value": "white precipitation formed instantly"},
      {"measurement": "colony formation in soft agar", "setting": "MCF7 cells [4]", "value": "formed many colonies"}
    ]}
  ]
}
